The record followed here is US8106054B2, “Crystalline pyridazine compound” (priority 2007, dated 2012).

Values after ≈ are worked out from the molar mass of the structure shown.

The nature of one data set: physchem. It counts as physicochemical. As to conditions: pH 2, aqueous buffer.
Data set [1] is described as follows: Phase-1 first-in-human trial, pharmacokinetics. It counts as in vivo.
From the text: A randomized, double-blind, placebo controlled trial was designed to evaluate the safety/tolerability, pharmacokinetics and antiviral activity of single (in Part A) and multiple (in Part B) doses of Compound (1) (oleic acid solution, above) in subjects chronically infected with HCV genotype 1 (GT-1) without decompensated cirrhosis.
In completed Part A, five successive cohorts of 6 subjects were randomized (5:1) to receive single ascending doses of Compound 1 (40, 120, 240, 240-with food, or 480 mg) or placebo. In ongoing Part B, four successive cohorts of 12 subjects are randomized (10:2) to receive multiple ascending doses of Compound 1 (40 mg BID, 120 mg BID, 240 mg QD, 240 mg BID) or placebo, over 8 days.
On the set-up of data set [2]: species or system human. As to conditions: in vivo.
In data set [3] the test system is HCV genotype 1 (Con-1/lucneo) replicon. It counts as cell-based. As to conditions: 3 days, absence of HSA. Here is the method: HCV genotype 1 (Con-1/lucneo) and 1a (H77/neo) replicon cells were incubated with serial dilutions of compound (1) 2′C-methyl adenosine (2′CMeA) or IFNα for 3 days in the absence or presence of 40 mg/mL human serum albumin (HSA).

On to `Fc1ccccc1-c1nc2ccn(Cc3ccc(-c4ccc(C(F)(F)F)cc4C(F)(F)F)nn3)cc-2n1` [Compound 1, 5-((6-(2,4-Bis(trifluoromethyl)phenyl]pyridazin-3-yl)methyl)-2-(2-fluorophenyl)-5H-imidazo[4,5-c]pyridine], for which, in the data set “physchem”, the solubility was determined as 458 µg/mL (≈ 885 µM). Besides, in data set [1] (240 mg fasted single dose), the “mean concentration 24 hours after dosing relative to protein binding adjusted in vitro HCV GT-1 replicon EC50” value is on record as approximately 7 fold. In addition, the “increase in systemic exposure with a high fat meal” value in data set [1] (single dose 240 mg with food vs fasted) is given as “approximately 2 fold”. The “tolerability of single doses” value in data set [2] is recorded as “well tolerated, with no serious or treatment-limiting adverse events (AEs) reported”.

Take IFN-α: the “EC50 HCV 1-lucneo” value in data set [3] is 2 IU/mL.

One may read the solubility as the concentration that dissolves in the medium under given conditions. Low readings indicate little dissolved substance, high ones much dissolved substance.
